Measurements as given in paper PMC10674403, “Imperatorin Restores Chemosensitivity of Multidrug-Resistant Cancer Cells by Antagonizing ABCG2-Mediated Drug Transport” (Pharmaceuticals, 2023).

Assays:
[1] = target: T1, ABCG2 (Homo sapiens, UniProt Q9UNQ0); experiment: Vanadate-sensitive ATPase stimulation in ABCG2 membrane vesicles (Pi release); also inhibition of PhA efflux in ABCG2-transfected HEK293 cells; assay type: biochemical; set-up: membrane vesicles derived from ABCG2 baculovirus-infected High Five insect cells
T1 sequence (Q9UNQ0 1-655): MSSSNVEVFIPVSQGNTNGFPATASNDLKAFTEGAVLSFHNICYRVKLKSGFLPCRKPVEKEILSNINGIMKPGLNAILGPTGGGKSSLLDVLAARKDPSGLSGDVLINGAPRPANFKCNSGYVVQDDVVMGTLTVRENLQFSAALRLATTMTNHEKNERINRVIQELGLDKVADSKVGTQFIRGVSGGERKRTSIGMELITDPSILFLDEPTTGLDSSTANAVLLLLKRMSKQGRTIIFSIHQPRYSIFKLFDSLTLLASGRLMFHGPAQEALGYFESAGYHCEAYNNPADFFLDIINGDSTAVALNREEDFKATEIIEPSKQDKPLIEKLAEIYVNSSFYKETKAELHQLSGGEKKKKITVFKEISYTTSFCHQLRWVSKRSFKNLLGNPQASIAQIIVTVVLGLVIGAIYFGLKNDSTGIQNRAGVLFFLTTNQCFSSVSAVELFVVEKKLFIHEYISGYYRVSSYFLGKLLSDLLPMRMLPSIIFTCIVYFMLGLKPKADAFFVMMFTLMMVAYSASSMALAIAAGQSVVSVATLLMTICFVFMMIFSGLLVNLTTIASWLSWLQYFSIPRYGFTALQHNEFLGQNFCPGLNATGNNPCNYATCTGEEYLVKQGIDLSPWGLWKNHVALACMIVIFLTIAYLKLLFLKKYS

[2] = target: T1, ABCG2; experiment: Fluorescent substrate accumulation/efflux by flow cytometry in ABCG2-expressing versus parental cells; assay type: cell-based; set-up: human ABCG2-transfected R482-HEK293 cells; S1-MI-80 and H460-MX20 cells

With `CC(C)=CCOc1c2occc2cc2ccc(=O)oc12` [IMP, Imperatorin] as the molecule, how does the EC50 [1] read?
Its EC50 is roughly 170 nM.

How did the “Fluorescent substrate accumulation/efflux by flow cytometry in ABCG2-expressing” value [2] turn out when `C=Cc1c(C)c2cc3nc(c4c5[nH]c(cc6nc(cc1[nH]2)C(C)=C6CC)c(C)c5C(=O)[C@@H]4C(=O)OC)[C@@H](CCC(=O)O)[C@@H]3C` [PhA, pheophorbide A] was run?
Its value is “ABCG2-mediated efflux of an ABCG2-specific fluorescent substrate PhA”.
